Laboratory results published in PubChem BioAssay AID328 (DTP/NCI, 2004).
“And” between values parts separate entries of the source, which are not always exact repeats. Equal entries are not always repeated. Toxic doses and inconclusive results are not listed.

System: BDF1 mice, P388 leukemia ip, median survival T/C
Test: NCI In Vivo Anticancer Drug Screen. Data for tumor model P388 Leukemia (intraperitoneal) in B6D2F1 (BDF1) mice
Details: endpoint: median survival time, higher = longer survival
Procedure, shortened: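 T/C = treated-group survival ÷ vehicle-control survival; tumour transplanted into mice before dosing.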

[1] = dose: 100.0 mg/kg/injection, schedule: Q04DX002 (ip), vehicle: saline with Tween-80
[2] = dose: 200.0 mg/kg/injection, schedule: Q04DX002 (ip), vehicle: saline with Tween-80
[3] = dose: 400.0 mg/kg/injection, schedule: Q04DX002 (ip), vehicle: saline with Tween-80
[4] = dose: 100.0 mg/kg/injection, schedule: Q04DX003 (ip), vehicle: saline with Tween-80
[5] = dose: 200.0 mg/kg/injection, schedule: Q04DX003 (ip), vehicle: saline with Tween-80
[6] = dose: 400.0 mg/kg/injection, schedule: Q04DX003 (ip), vehicle: saline with Tween-80
[7] = dose: 100.0 mg/kg/injection, schedule: Q01DX009 (ip), vehicle: saline with Tween-80
[8] = dose: 25.0 mg/kg/injection, schedule: Q01DX009 (ip), vehicle: saline with Tween-80
[9] = dose: 50.0 mg/kg/injection, schedule: Q01DX009 (ip), vehicle: saline with Tween-80
[10] = dose: 12.5 mg/kg/injection, schedule: Q01DX009 (ip), vehicle: saline
[11] = dose: 100.0 mg/kg/injection, schedule: Q01DX009 (ip), vehicle: Klucel (hydroxypropylcellulose) (HPC)
[12] = dose: 200.0 mg/kg/injection, schedule: Q01DX009 (ip), vehicle: Klucel (hydroxypropylcellulose) (HPC)
[13] = dose: 50.0 mg/kg/injection, schedule: Q04DX003 (ip), vehicle: saline
[14] = dose: 100.0 mg/kg/injection, schedule: Q04DX003 (ip), vehicle: saline
[15] = dose: 12.5 mg/kg/injection, schedule: Q01DX009 (ip), vehicle: saline with Tween-80
[16] = dose: 200.0 mg/kg/injection, schedule: Q01DX009 (ip), vehicle: saline with Tween-80

For `OC(Cc1cnc2ccccc2c1)(c1ccccc1)c1ccccc1`, the T/C (dose: 25.0 mg/kg/injection, schedule: Q04DX002 (ip), vehicle: saline with Tween-80) was 98 % of control and 103 % of control, the T/C (dose: 50.0 mg/kg/injection, schedule: Q04DX002 (ip), vehicle: saline with Tween-80) was 99 % of control and 117 % of control and the T/C [1] was 98 % of control and 103 % of control. For the same compound, the T/C [2] was 94 % of control and 99 % of control and 100 % of control and the T/C [3] was 98 % of control.

With `Nc1nc2ccccc2c(=O)n1C(=O)c1ccccc1` the T/C [4] was 93 % of control, the T/C [5] was 94 % of control and the T/C [6] was 116 % of control.

In the case of `CC(=O)Nc1ccc(Cl)c(Cl)c1`, the T/C (dose: 100.0 mg/kg/injection, schedule: Q04DX003 (ip), vehicle: saline sonified) was 100 % of control, the T/C [4] was 90 % of control and the T/C (dose: 200.0 mg/kg/injection, schedule: Q04DX003 (ip), vehicle: saline sonified) was 120 % of control. For the same compound, the T/C [5] was 100 % of control and the T/C (dose: 400.0 mg/kg/injection, schedule: Q04DX003 (ip), vehicle: saline sonified) was 104 % of control.

With `COP(=O)(OC)C(OC(=O)C(C)(C)SC(C)=S)=C(C)C` the T/C [4] was 110 % of control, the T/C [5] was 115 % of control and the T/C [6] was 115 % of control.

With `CCCCCCCCOc1cc(OCCCCCCCC)c2c(ccc3ccccc32)c1` the T/C [4] was 97 % of control, the T/C [5] was 88 % of control and the T/C [6] was 94 % of control.

In the case of `C=C[C@@](C)(O)CC/C=C(/C)CCC=C(C)C`, the T/C [7] was 109 % of control.

In the case of `Nc1ccc(OCCCc2c(-c3ccccc3)nc(N)[nH]c2=O)cc1`, the T/C [8] was 100 % of control, the T/C [9] was 99 % of control and the T/C [7] was 108 % of control.

For `COc1cc(NCCCC(C)N)c2ncccc2c1OC` (stereo not drawn), the T/C (dose: 6.25 mg/kg/injection, schedule: Q01DX009 (ip), vehicle: saline) was 101 % of control, the T/C [10] was 109 % of control and the T/C (dose: 25.0 mg/kg/injection, schedule: Q01DX009 (ip), vehicle: saline) was 116 % of control.

For `CC(C#N)Oc1cccc2ccccc12` (stereo not drawn), the T/C (dose: 2.0 mg/kg/injection, schedule: Q01DX009 (ip), vehicle: DMSO) was 96 % of control, the T/C (dose: 3.0 mg/kg/injection, schedule: Q01DX009 (ip), vehicle: DMSO) was 115 % of control and the T/C (dose: 4.5 mg/kg/injection, schedule: Q01DX009 (ip), vehicle: DMSO) was 110 % of control. The T/C (dose: 6.0 mg/kg/injection, schedule: Q01DX009 (ip), vehicle: DMSO) was 110 % of control, the T/C (dose: 12.0 mg/kg/injection, schedule: Q01DX009 (ip), vehicle: DMSO) was 120 % of control and the T/C (dose: 12.5 mg/kg/injection, schedule: Q01DX009 (ip), vehicle: DMSO) was 88 % of control. The T/C (dose: 25.0 mg/kg/injection, schedule: Q01DX009 (ip), vehicle: DMSO) was 88 % of control and the T/C (dose: 100.0 mg/kg/injection, schedule: Q04DX003 (ip), vehicle: DMSO) was 100 % of control.

With `O=C(O)C(Br)(C(=O)O)c1ccccc1` the T/C [1] was 93 % of control, the T/C [2] was 97 % of control and the T/C [3] was 93 % of control.

In the case of `CCN1c2ccccc2CC(C#N)(CCN(C)C)c2ccccc21` (stereo not drawn), the T/C [7] was 100 % of control.

With `CCOC(=O)C1=C(C)NC(C)=C(C(=O)OCC)C1c1cccc([N+](=O)[O-])c1` the T/C (dose: 50.0 mg/kg/injection, schedule: Q01DX009 (ip), vehicle: Klucel (hydroxypropylcellulose) (HPC)) was 105 % of control, the T/C [11] was 100 % of control and the T/C [12] was 90 % of control.

With `Cc1c(O)ccc2c1CCCC2` the T/C (dose: 50.0 mg/kg/injection, schedule: Q01DX001 (ip), vehicle: saline sonified) was 90 % of control, the T/C (dose: 100.0 mg/kg/injection, schedule: Q01DX001 (ip), vehicle: saline sonified) was 104 % of control and the T/C (dose: 200.0 mg/kg/injection, schedule: Q01DX001 (ip), vehicle: saline sonified) was 100 % of control.

With `NC(=Nc1ccc(Cl)cc1)/N=C(/N)N1CCN(/C(N)=N/C(N)=Nc2ccc(Cl)cc2)CC1` the T/C [10] was 120 % of control, the T/C (dose: 16.5 mg/kg/injection, schedule: Q01DX009 (ip), vehicle: saline) was 116 % of control and the T/C (dose: 25.0 mg/kg/injection, schedule: Q01DX001 (ip), vehicle: saline) was 104 % of control. For the same compound, the T/C (dose: 37.5 mg/kg/injection, schedule: Q01DX009 (ip), vehicle: saline) was 150 % of control, the T/C (dose: 50.0 mg/kg/injection, schedule: Q01DX001 (ip), vehicle: saline) was 113 % of control and the T/C [13] was 100 % of control. For the same compound, the T/C (dose: 100.0 mg/kg/injection, schedule: Q01DX001 (ip), vehicle: saline) was 109 % of control, the T/C [14] was 115 % of control and the T/C (dose: 150.0 mg/kg/injection, schedule: Q01DX001 (ip), vehicle: Klucel (hydroxypropylcellulose) (HPC)) was 116 % of control.

In the case of `NNc1n[nH]c(=S)n1N`, the T/C (dose: 6.25 mg/kg/injection, schedule: Q04DX003 (ip), vehicle: saline with Tween-80) was 104 % of control, the T/C (dose: 12.5 mg/kg/injection, schedule: Q04DX003 (ip), vehicle: saline with Tween-80) was 100 % of control and the T/C (dose: 25.0 mg/kg/injection, schedule: Q04DX003 (ip), vehicle: saline with Tween-80) was 95 % of control.

With `O=c1ccc2ccccc2o1` the T/C (dose: 50.0 mg/kg/injection, schedule: Q01DX010 (ip), vehicle: saline) was 100 % of control, the T/C (dose: 100.0 mg/kg/injection, schedule: Q01DX010 (ip), vehicle: saline) was 90 % of control and the T/C (dose: 200.0 mg/kg/injection, schedule: Q01DX010 (ip), vehicle: saline) was 90 % of control. For the same compound, the T/C (dose: 400.0 mg/kg/injection, schedule: Q01DX010 (ip), vehicle: saline) was 95 % of control.

With `Cc1ccc(S(=O)(=O)N(CCO)CC(C)O)cc1` (stereo not drawn) the T/C [11] was 100 % of control, the T/C [12] was 100 % of control and the T/C (dose: 400.0 mg/kg/injection, schedule: Q01DX009 (ip), vehicle: Klucel (hydroxypropylcellulose) (HPC)) was 100 % of control.

In the case of `COc1c(Br)cc(Br)cc1/C=C/[N+](=O)[O-]`, the T/C (dose: 6.25 mg/kg/injection, schedule: Q01DX009 (ip), vehicle: saline with Tween-80) was 114 % of control, the T/C [15] was 114 % of control and the T/C [8] was 116 % of control.

For `CN(C)c1ccc(/C=C\c2cc(/C=C/c3ccc(N(C)C)cc3)nc3ccccc23)cc1`, the T/C [9] was 103 % of control, the T/C [7] was 116 % of control and the T/C [16] was 120 % of control.

`CCN=C1N[N+]2=CCCCC2S1` (stereo not drawn) was tested, and the T/C (dose: 35.0 mg/kg/injection, schedule: Q01DX009 (ip), vehicle: saline) was 111 % of control and the T/C (dose: 140.0 mg/kg/injection, schedule: Q01DX009 (ip), vehicle: saline) was 95 % of control.

In the case of `S=c1[nH]nc(NC2CCCCC2)s1`, the T/C (dose: 25.0 mg/kg/injection, schedule: Q01DX001 (ip), vehicle: Klucel (hydroxypropylcellulose) (HPC)) was 100 % of control, the T/C (dose: 50.0 mg/kg/injection, schedule: Q01DX001 (ip), vehicle: Klucel (hydroxypropylcellulose) (HPC)) was 112 % of control and the T/C (dose: 100.0 mg/kg/injection, schedule: Q01DX001 (ip), vehicle: Klucel (hydroxypropylcellulose) (HPC)) was 87 % of control.

In the case of `[N-]=[N+]=CC(=O)OCC(N)C(=O)O` (stereo not drawn), the T/C (dose: 100.0 mg/kg/injection, schedule: Q01DX009 (ip), vehicle: saline) was 110 % of control, the T/C [14] was 109 % of control and the T/C (dose: 200.0 mg/kg/injection, schedule: Q01DX009 (ip), vehicle: saline) was 110 % of control. For the same compound, the T/C (dose: 200.0 mg/kg/injection, schedule: Q04DX003 (ip), vehicle: saline) was 109 % of control and the T/C (dose: 400.0 mg/kg/injection, schedule: Q04DX003 (ip), vehicle: saline) was 118 % of control.

With `COC(OC)C1(O)CC(C(C)C)OC(=O)N1` (stereo not drawn) the T/C [13] was 97 % of control and the T/C [14] was 105 % of control.

In the case of `CCCSc1nc(N)nc2nc[nH]c12`, the T/C (dose: 100.0 mg/kg/injection, schedule: Q04DX003 (ip), vehicle: alcohol) was 100 % of control, the T/C (dose: 200.0 mg/kg/injection, schedule: Q04DX003 (ip), vehicle: alcohol) was 104 % of control and the T/C (dose: 400.0 mg/kg/injection, schedule: Q04DX003 (ip), vehicle: alcohol) was 90 % of control.

With `C=C(C)C(=O)NCCCCCC(=O)Oc1ccc([N+](=O)[O-])cc1` the T/C [15] was 95 % of control, the T/C [8] was 116 % of control and the T/C [9] was 86 % of control and 106 % of control. For the same compound, the T/C [16] was 86 % of control.

`O=C(C[n+]1ccccc1)N/N=C/c1ccc(O)c(O)c1` was tested, and the T/C [7] was 100 % of control, the T/C [4] was 95 % of control and the T/C [16] was 104 % of control. For the same compound, the T/C [5] was 86 % of control.

With `CCOC(=O)CCCN(c1[nH]c(C)c(C)c1C#N)S(=O)(=O)c1ccc(C)cc1` the T/C [8] was 109 % of control, the T/C [9] was 100 % of control and the T/C [7] was 113 % of control. For the same compound, the T/C [16] was 104 % of control, the T/C [5] was 87 % of control and the T/C [6] was 95 % of control.
